In publication PMC12323621, “Exploring the antimicrobial activity of pantothenamides against uropathogenic Escherichia coli” (Microbiology Spectrum, 2025):
Converted amounts (≈) assume the structure as drawn. Like-named read-outs stand apart in the source and are kept apart here.

How the values were obtained:
[1] = Phase I metabolic stability in mouse liver microsomes; assay type: in vitro ADME; conditions: for stability in mouse liver microsomes: n = 3; for remaining at 1 h, 1 µM: mouse, liver microsomes, pH 7.4, 1 h
Protocol: (§1) Stability studies were conducted in mouse liver microsomes, mouse liver tissue homogenate, and CD1 mouse plasma as previously described with minor modifications ([54][–][56]). Briefly, for Phase I mouse liver microsome stability, reactions were carried out with 200 mM potassium phosphate buffer, pH 7.4, with or without an NADPH-regenerating system (1.3 mM NADPH, 3.3 mM glucose 6-phosphate, 3.3 mM MgCl2, 0.4 U/mL glucose-6-phosphate dehydrogenase, and 50 µM sodium citrate). Reactions, in triplicate, were initiated by the addition of liver microsomes to the incubation mixture (compound final concentration was 1 µM; 0.2 mg/mL microsomes) and incubated at 37°C for the desired incubation time. For liver stability, the tissue homogenate was prepared by washing tissues with diluted 10-fold 0.1 M potassium phosphate buffer and homogenized using a probe sonicator over ice. To evaluate the stability of the drugs over time, each of the crude homogenates was aliquoted to 1 mL and then spiked with a final assay concentration of 10 µM of each drug, followed by incubation in an orbital shaker at 37°C for 1 h (in triplicate). For plasma stability, 1 mL of plasma was spiked with 10 µM of each drug, followed by incubation in an orbital shaker at 37°C for 1 h (in triplicate). Samples from each metabolism study were quenched with 3× volume of acetonitrile containing internal standard (losartan: 0.5 µM) at the desired incubation times. […] Samples were vortex-mixed for 30 s and centrifuged at 10,000 × g for 10 min at 4°C. Compound disappearance over time was monitored using a Dionex ultra-high-performance liquid chromatography system consisting of an analytical pump and an autosampler coupled with Q Exactive Focus orbitrap mass spectrometer (Thermo Fisher Scientific Inc., Waltham MA). […] The mobile phase used was composed of 0.1% formic acid in water and 0.1% formic acid in acetonitrile with gradient elution. The total run time for each analyte was 5 min.
(§2) The mass spectrometer was operated with a HESI ion source in positive ionization mode where compounds were identified in the full scan mode (from m/z 75.00–1125.00) and controlled by the Xcalibur software 4.0.27.13 (Thermo Scientific). Data were acquired using Xcalibur software. Drugs were identified in the full-scan mode (from m/z 75.00 to 1125.00) by comparing t = 0 samples with t = 30 or 60 min samples, and structures were proposed based on the accurate mass information. The percentage of compound remaining for pantothenamides 1, 6, and 7 was determined from the analyte/internal standard (IS) area ratios obtained at t = 30 or 60 min relative to the mean ratios obtained at t = 0 min and calculated using equation 1:
(§3) % Remaining=(Peak area of Analyte/Preak area of ISat t=30 or 60 min/MeanPeak area of Analyte/Peak area of ISat t=0 min)×100

[2] = Stability in mouse plasma; assay type: in vitro ADME; conditions: for stability in mouse plasma: n = 3
Protocol: as §1, §2, §3

[3] = test system: serum pantetheinases; conditions: cited from earlier work
[4] = test system: mammalian cells; conditions: cited from earlier work
[5] = test system: UPEC strain CFT073; design: method as in PMID 37107054; conditions: cited from earlier work
[6] = test system: UPEC strain CFT073; design: method as in PMID 37107054; conditions: 1 combined with BAP; cited from earlier work

% remaining in mouse liver microsomes, presence of NADPH ([1]; 1 h, with NADPH, 1 µM compound, 0.2 mg/mL microsomes) | % remaining in mouse liver microsomes, absence of NADPH ([1]; 1 h, without NADPH, 1 µM compound, 0.2 mg/mL microsomes) | stability in mouse liver microsomes [1] | % remaining in mouse plasma ([2]; 1 h, 10 µM compound, 37°C) | stability in mouse plasma [2] | remaining at 1 h, 1 µM ([1]; with NADPH, 1 µM compound, 0.2 mg/mL microsomes, read-out: % remaining in mouse liver microsomes, presence of NADPH) | remaining at 1 h, 1 µM ([1]; without NADPH, 1 µM compound, 0.2 mg/mL microsomes, read-out: % remaining in mouse liver microsomes, absence of NADPH) | remaining at 1 h, 10 µM ([2]; CD1, mouse, plasma, 1 h, 10 µM compound, 37°C) | Compound | stability in the presence of serum pantetheinases [3] | toxicity to mammalian cells [4] | fold drop in potency in urine versus MOPS-glycerol ([5]; UPEC CFT073) | MIC in commercial pooled human urine ([5]; UPEC, commercial pooled human urine) | interaction with BAP against UPEC in urine [6]
no degradation | no degradation | good stability | no degradation | good stability |  |  |  | CCCCCNC(=O)CNC(=O)[C@H](O)C(C)(C)CO [compound 6, N5-α-pantothenamide] | stable | non-toxic |  |  | 
 |  | good stability |  | unstable | 90% | 93% | < 1% | CCCCCNC(=O)CCNC(=O)[C@H](O)C(C)(C)CO [compound 1, N-pentylpantothenamide, reference compound] |  |  | ≥ 30 fold | 156 µM (≈ 45 µg/mL) | synergy
